Measurements reported in EP1935986B1, “Luminogenic and fluorogenic compounds and methods to detect molecules or conditions” (priority 2005, dated 2006).

How the values were obtained:
QuantiLum Luciferase [1] = biological target: T1, QuantiLum Luciferase (Photinus pyralis, UniProt P08659); assay: Firefly luciferase reaction with luciferin derivatives: light emission over time (with or without ATP, EDTA, coenzyme A, DTT); assay type: biochemical; design: unit not given here
T1 construct: purchased Promega Corporation E170
T1 sequence (P08659 whole entry): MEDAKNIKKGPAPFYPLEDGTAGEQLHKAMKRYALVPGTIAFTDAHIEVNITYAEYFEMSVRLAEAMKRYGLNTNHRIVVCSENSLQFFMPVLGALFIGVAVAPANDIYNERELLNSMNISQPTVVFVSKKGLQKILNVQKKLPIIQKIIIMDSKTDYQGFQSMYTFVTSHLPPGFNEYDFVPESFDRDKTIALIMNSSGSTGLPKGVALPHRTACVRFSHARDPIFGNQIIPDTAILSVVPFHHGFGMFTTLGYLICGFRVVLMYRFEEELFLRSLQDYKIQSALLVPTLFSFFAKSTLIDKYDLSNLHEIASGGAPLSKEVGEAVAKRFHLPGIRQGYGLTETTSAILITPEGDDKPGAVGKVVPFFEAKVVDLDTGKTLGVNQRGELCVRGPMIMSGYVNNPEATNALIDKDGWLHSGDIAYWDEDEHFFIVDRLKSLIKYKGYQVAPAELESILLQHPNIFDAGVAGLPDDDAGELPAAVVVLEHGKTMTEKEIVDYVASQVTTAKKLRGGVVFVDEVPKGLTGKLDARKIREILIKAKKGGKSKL
Description: Gel and HPLC stop solution. Solid EDTA (free acid) was placed in a beaker with water and the pH of the solution adjusted to pH 7.0. The solution was then adjusted in volume to produce a solution 400 mM in EDTA.
Enzyme stop solution. A solution was prepared containing 20 mM Bis Tris, pH 6.5, 2 mM EDTA and 1mg/ml bovine serum albumin.
Reaction buffer (2X). A solution was made containing 100 mM HEPES buffer, pH 8.0; 10 mM MgCl2.
DTT stock. Solid DTT (dithiothreatol) was dissolved in water and then adjusted to pH 8.0 with solid sodium hydroxide. The solution was then adjusted in volume to produce a solution 1 M in DTT.
(§1) After producing the solutions in Table 37, the volume of all reactions was adjusted to 990 µl with water. […] While the light reading was being taken, a 10 µl sample of the reaction was diluted to 500 µl with enzyme stop solution (cooled on ice to 4°C) mixed and placed on ice and a second sample of 90 µl of reaction was added to 10 µl of Gel/HPLC stop and the tube placed at -20°C. A timer was started with the start of the first reaction and the start times of the remaining reactions was noted. At 15, 30, 45 and 60 minutes, each reaction was sampled as above and the light produced in the luminometer tubes was measured. At 7 and 22 minutes, the light produced in the luminometer tubes was read, but the reactions were not sampled.
as §1, with “40,” for “37,”

QuantiLum Luciferase [2] = biological target: T1, QuantiLum Luciferase; assay: Residual active luciferase after reaction with luciferin derivatives (Steady Glo); assay type: biochemical, firefly; design: unit not given here
Description: as §1
After all samples were taken, 50 µl of the sample diluted into enzyme stop solution was mixed with 50 µl of Steady Glo Luciferase Reagent (Promega) and the light produced measured after incubating at room temperature for 10 minutes. This measured the active luciferase in the initial reaction.
as §1, with “40,” for “37,”

[3] = biological target: T2, human recombinant monoamine oxidase B (MAO B) (Homo sapiens, UniProt P27338); assay: One-step fluorogenic MAO assay with MAO-F3; assay type: biochemical
T2 construct: purchased Sigma Chemical Company M-7441; host or cells: baculovirus infected insect cells (microsomes)
T2 sequence (P27338 1-520): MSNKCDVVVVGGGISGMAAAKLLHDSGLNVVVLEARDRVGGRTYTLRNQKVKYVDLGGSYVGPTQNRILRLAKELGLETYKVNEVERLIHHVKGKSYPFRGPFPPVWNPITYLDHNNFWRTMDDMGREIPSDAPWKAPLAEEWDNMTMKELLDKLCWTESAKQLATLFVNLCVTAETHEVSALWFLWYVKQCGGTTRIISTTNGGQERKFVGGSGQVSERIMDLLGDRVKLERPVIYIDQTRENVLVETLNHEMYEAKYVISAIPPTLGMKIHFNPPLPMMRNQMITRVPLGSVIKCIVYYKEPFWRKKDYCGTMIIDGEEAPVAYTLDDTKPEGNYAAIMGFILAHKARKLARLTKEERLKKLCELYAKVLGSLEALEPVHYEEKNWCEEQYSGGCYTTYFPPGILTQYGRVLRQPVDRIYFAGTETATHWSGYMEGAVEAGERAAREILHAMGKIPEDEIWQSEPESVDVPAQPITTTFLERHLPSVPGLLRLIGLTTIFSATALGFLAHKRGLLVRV
Description: (§2) The fluorescent signal was then measured (excitation/emission = 355/460 nm) on a Fluoroskan Ascent plate fluorometer.
(§3) This 90 µl contained 35 µl 200 mM Tricine pH 8.3, 35 µl 200 mM Tricine pH 8.7 (or water), 10 µl 200 mM MgSO4, and 10 µl of each substrate dilution.

[4] = biological target: T3, human recombinant monoamine oxidase A (MAO A) (Homo sapiens, UniProt P21397); assay: One-step fluorogenic MAO assay with MAO-F3; assay type: biochemical; design: purchased Sigma Chemical Company M-7316; host or cells: baculovirus infected insect cells (microsomes)
T3 sequence (P21397 1-527): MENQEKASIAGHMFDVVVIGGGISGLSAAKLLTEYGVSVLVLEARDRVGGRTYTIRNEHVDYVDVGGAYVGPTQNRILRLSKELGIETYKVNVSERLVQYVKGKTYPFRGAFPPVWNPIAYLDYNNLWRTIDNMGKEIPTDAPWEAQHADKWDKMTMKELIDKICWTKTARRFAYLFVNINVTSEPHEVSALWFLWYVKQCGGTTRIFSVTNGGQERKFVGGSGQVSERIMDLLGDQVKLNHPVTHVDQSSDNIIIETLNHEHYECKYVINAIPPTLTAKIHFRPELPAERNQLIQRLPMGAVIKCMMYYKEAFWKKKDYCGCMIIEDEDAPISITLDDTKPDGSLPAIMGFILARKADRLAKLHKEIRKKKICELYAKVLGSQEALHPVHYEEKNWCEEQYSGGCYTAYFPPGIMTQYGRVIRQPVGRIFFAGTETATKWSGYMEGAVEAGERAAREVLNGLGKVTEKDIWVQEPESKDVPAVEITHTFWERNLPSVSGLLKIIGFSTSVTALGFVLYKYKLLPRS
Description: as §2, §3

[5] = One-step fluorogenic MAO assay with MAO-F3, control wells with H2O instead of MAO (fluorescence of the derivative); assay type: biochemical
Description: as §2, §3

[6] = fit of Table 31, fluorescence 355/460 nm

O=C(O)[C@H]1CSC(c2nc3ccc(OCc4ccccc4)cc3s2)=N1 [Luc'in BE]
Light reading at time (QuantiLum Luciferase [1]; +Co A, 7 min): 11.92 | Light reading at time (QuantiLum Luciferase [1]; +Co A, 22 min): 9.941 | Light reading at time (QuantiLum Luciferase [1]; +CoA, 0 min): 139.5 | Light reading at time (QuantiLum Luciferase [1]; +CoA, 15 min): 10.99 | Light reading at time (QuantiLum Luciferase [1]; +CoA, 30 min): 7.379 | Light reading at time (QuantiLum Luciferase [1]; +CoA, 45 min): 7.284 | Light reading at time (QuantiLum Luciferase [1]; +CoA, 60 min): 6.433 | Light reading at time (QuantiLum Luciferase [1]; +DTT, 0 min): 948 | Light reading at time (QuantiLum Luciferase [1]; +DTT, 7 min): 532.8 | Light reading at time (QuantiLum Luciferase [1]; +DTT, 15 min): 417 | Light reading at time (QuantiLum Luciferase [1]; +DTT, 22 min): 369.5 | Light reading at time (QuantiLum Luciferase [1]; +DTT, 30 min): 331.6 | Light reading at time (QuantiLum Luciferase [1]; +DTT, 45 min): 273.5 | Light reading at time (QuantiLum Luciferase [1]; +DTT, 60 min): 226.9 | Light reading at time (QuantiLum Luciferase [1]; No addition, 0 min): 135.2 | Light reading at time (QuantiLum Luciferase [1]; No addition, 7 min): 22.61 | Light reading at time (QuantiLum Luciferase [1]; No addition, 15 min): 12.79 | Light reading at time (QuantiLum Luciferase [1]; No addition, 22 min): 9.256 | Light reading at time (QuantiLum Luciferase [1]; No addition, 30 min): 6.928 | Light reading at time (QuantiLum Luciferase [1]; No addition, 45 min): 4.879 | Light reading at time (QuantiLum Luciferase [1]; No addition, 60 min): 3.311 | Light reading at time (QuantiLum Luciferase [1]; w/o ATP, 0 min): 0.015 | Light reading at time (QuantiLum Luciferase [1]; w/o ATP, 7 min): 0 | Light reading at time (QuantiLum Luciferase [1]; w/o ATP, 15 min): 0.008 | Light reading at time (QuantiLum Luciferase [1]; w/o ATP, 22 min): 0.005 | Light reading at time (QuantiLum Luciferase [1]; w/o ATP, 30 min): 0 | Light reading at time (QuantiLum Luciferase [1]; w/o ATP, 45 min): 0 | Light reading at time (QuantiLum Luciferase [1]; w/o ATP, 60 min): 0.01 | Light reading from residual active enzyme at time (QuantiLum Luciferase [2]; +CoA, 0 min): 186.7 | Light reading from residual active enzyme at time (QuantiLum Luciferase [2]; +CoA, 15 min): 179.6 | Light reading from residual active enzyme at time (QuantiLum Luciferase [2]; +CoA, 30 min): 179.4 | Light reading from residual active enzyme at time (QuantiLum Luciferase [2]; +CoA, 45 min): 157.9 | Light reading from residual active enzyme at time (QuantiLum Luciferase [2]; +CoA, 60 min): 161.8 | Light reading from residual active enzyme at time (QuantiLum Luciferase [2]; No addition, 0 min): 129.7 | Light reading from residual active enzyme at time (QuantiLum Luciferase [2]; No addition, 15 min): 69.9 | Light reading from residual active enzyme at time (QuantiLum Luciferase [2]; No addition, 30 min): 47.31 | Light reading from residual active enzyme at time (QuantiLum Luciferase [2]; No addition, 45 min): 37.94 | Light reading from residual active enzyme at time (QuantiLum Luciferase [2]; No addition, 60 min): 29.08 | Light reading from residual active enzyme at time (QuantiLum Luciferase [2]; w/o ATP, 0 min): 168.3 | Light reading from residual active enzyme at time (QuantiLum Luciferase [2]; w/o ATP, 15 min): 174.1 | Light reading from residual active enzyme at time (QuantiLum Luciferase [2]; w/o ATP, 30 min): 171.7 | Light reading from residual active enzyme at time (QuantiLum Luciferase [2]; w/o ATP, 45 min): 172.9 | Light reading from residual active enzyme at time (QuantiLum Luciferase [2]; w/o ATP, 60 min): 164

CNCCCOc1ccc2c(C)cc(=O)oc2c1 [MAO-F3, 7-(4-methyl-3-N-methylaminopropoxy)coumarin]
relative fluorescent signal, MAO B ([3]; [MAO-F3] 0.21 µM): 202 | relative fluorescent signal, net B ([3]; [MAO-F3] 0.21 µM): 154 | relative fluorescent signal, MAO B ([3]; [MAO-F3] 0.84 µM): 689 | relative fluorescent signal, net B ([3]; [MAO-F3] 0.84 µM): 632 | relative fluorescent signal, MAO B ([3]; [MAO-F3] 3.37 µM): 2198 | relative fluorescent signal, net B ([3]; [MAO-F3] 3.37 µM): 2080 | relative fluorescent signal, MAO B ([3]; [MAO-F3] 6.75 µM): 3683 | relative fluorescent signal, net B ([3]; [MAO-F3] 6.75 µM): 3486 | relative fluorescent signal, MAO B ([3]; [MAO-F3] 13.50 µM): 5239 | relative fluorescent signal, net B ([3]; [MAO-F3] 13.50 µM): 4891 | relative fluorescent signal, MAO B ([3]; [MAO-F3] 26.99 µM): 7468 | relative fluorescent signal, net B ([3]; [MAO-F3] 26.99 µM): 6835 | relative fluorescent signal, MAO B ([3]; [MAO-F3] 53.98 µM): 9885 | relative fluorescent signal, net B ([3]; [MAO-F3] 53.98 µM): 8675 | relative fluorescent signal, MAO B ([3]; [MAO-F3] 215.94 µM): 14149 | relative fluorescent signal, net B ([3]; [MAO-F3] 215.94 µM): 10774 | relative fluorescent signal, MAO B ([3]; [MAO-F3] 431.88 µM): 16590 | relative fluorescent signal, net B ([3]; [MAO-F3] 431.88 µM): 11493 | relative fluorescent signal, MAO B ([3]; [MAO-F3] 863.75 µM): 17322 | relative fluorescent signal, net B ([3]; [MAO-F3] 863.75 µM): 10561 | signal-to-background ratios at the Km values ([3]; fit of Table 31): about 13 | Km [3, 6]: 16 ± 1 µM | relative fluorescent signal, MAO A ([4]; [MAO-F3] 0.21 µM): 240 | relative fluorescent signal, net A ([4]; [MAO-F3] 0.21 µM): 192 | relative fluorescent signal, MAO A ([4]; [MAO-F3] 0.84 µM): 815 | relative fluorescent signal, net A ([4]; [MAO-F3] 0.84 µM): 758 | relative fluorescent signal, MAO A ([4]; [MAO-F3] 3.37 µM): 2604 | relative fluorescent signal, net A ([4]; [MAO-F3] 3.37 µM): 2486 | relative fluorescent signal, MAO A ([4]; [MAO-F3] 6.75 µM): 4129 | relative fluorescent signal, net A ([4]; [MAO-F3] 6.75 µM): 3932 | relative fluorescent signal, MAO A ([4]; [MAO-F3] 13.50 µM): 6078 | relative fluorescent signal, net A ([4]; [MAO-F3] 13.50 µM): 5730 | relative fluorescent signal, MAO A ([4]; [MAO-F3] 26.99 µM): 8461 | relative fluorescent signal, net A ([4]; [MAO-F3] 26.99 µM): 7828 | relative fluorescent signal, MAO A ([4]; [MAO-F3] 53.98 µM): 11555 | relative fluorescent signal, net A ([4]; [MAO-F3] 53.98 µM): 10345 | relative fluorescent signal, MAO A ([4]; [MAO-F3] 215.94 µM): 16721 | relative fluorescent signal, net A ([4]; [MAO-F3] 215.94 µM): 13346 | relative fluorescent signal, MAO A ([4]; [MAO-F3] 431.88 µM): 19530 | relative fluorescent signal, net A ([4]; [MAO-F3] 431.88 µM): 14433 | relative fluorescent signal, MAO A ([4]; [MAO-F3] 863.75 µM): 21154 | relative fluorescent signal, net A ([4]; [MAO-F3] 863.75 µM): 14393 | signal-to-background ratios at the Km values ([4]; fit of Table 31): about 15 | Km [4, 6]: 21 ± 1 µM | relative fluorescent signal, no MAO ([5]; [MAO-F3] 0.21 µM): 48 | relative fluorescent signal, no MAO ([5]; [MAO-F3] 0.84 µM): 57 | relative fluorescent signal, no MAO ([5]; [MAO-F3] 3.37 µM): 118 | relative fluorescent signal, no MAO ([5]; [MAO-F3] 6.75 µM): 197 | relative fluorescent signal, no MAO ([5]; [MAO-F3] 13.50 µM): 348 | relative fluorescent signal, no MAO ([5]; [MAO-F3] 26.99 µM): 633 | relative fluorescent signal, no MAO ([5]; [MAO-F3] 53.98 µM): 1210 | relative fluorescent signal, no MAO ([5]; [MAO-F3] 215.94 µM): 3375 | relative fluorescent signal, no MAO ([5]; [MAO-F3] 431.88 µM): 5097 | relative fluorescent signal, no MAO ([5]; [MAO-F3] 863.75 µM): 6761
